Test results published in US20150099754A1, “TREATMENT OF CANCER CHARACTERIZED BY GENE MUTATIONS” (SIGNAL PHARMACEUTICALS, LLC, priority 2013, published 2015).
Values joined by “and” are separate entries in the source; they are usually repeats but may differ in a detail not shown here. Equal entries are not always repeated.

Assays:
[1] = test system: Advanced Solid Tumors, Non-Hodgkin Lymphoma or Multiple Myeloma; assay: Clinical Study A: Phase 1/2 dose finding study of Compound 1 administered orally (tumor response, RECIST 1.1); assay type: in vivo, human; design: key to RECIST* (best target lesion response): PR = partial response; SD = stable disease; PD = progressive disease; NE = nonevaluable; ND = not done
[2] = test system: Advanced Solid Tumors, Non-Hodgkin Lymphoma, or Multiple Myeloma; assay: Clinical Study B: Phase 1/2 dose finding study of the mTOR kinase inhibitor Compound 1 administered orally (best RECIST overall response, variants, Tables 2 and 3); assay type: in vivo, human; design: key: PR=partial response; SD=stable disease; PD=progressive disease; NE=non-evaluable; ND=not done; *: Confirmed reponse; details: one line per patient
Procedure: A Phase 1/2, Multi-Center, Open-Label, Dose Finding Study to Assess the Safety. Tolerability, Pharmacokinetics and Preliminary Efficacy of the mTOR Kinase Inhibitor Compound 1 Administered Orally to Subjects with Advanced Solid Tumors, Non-Hodgkin Lymphoma, or Multiple Myeloma.
Compound 1 is administered orally to subjects with advanced solid tumors, non-Hodgkin lymphoma (NHL), or multiple myeloma (MM). The study is designed as a Phase 1/2 trial consisting of two parts: dose escalation (Part A) and dose expansion (Part B).
The primary objectives of the study are (a) to determine the safety and tolerability of Compound 1 when administered orally and to define the non-tolerated dose (NTD) and the maximum tolerated dose (MTD) and (b) to determine the preliminary pharmacokinetics (PK) of Compound 1 following both single and multiple oral dosing of Compound 1.
The secondary objectives of the study are: (a) to evaluate the extent of inhibition of phosphorylation of S6RP (Ser235/236 and/or Ser240/244) and/or 4EB-P1 (Thr37/46) for mTORC1 activity and AKT (Ser473) and/or other relevant biomarkers for mTORC2 activity in peripheral blood samples and tumor biopsies following treatment with Compound 1; (b) to provide information on the preliminary efficacy of Compound 1; and (c) to characterize PK of the metabolite of Compound 1 following oral dosing of Compound 1.
In Part A, subjects will receive single and multiple ascending doses of Compound 1 to measure pharmacokinetics (PK) and identify the maximum tolerated dose (MTD). A modified accelerated titration design (Simon et al, J Nat Cancer Inst (1997) Vol. 89, No. 15) will be used to identify initial toxicity. During the accelerated course, initial cohorts of one subject will be given Compound 1 in dose increments of 100% until the first instance of first-course grade 2 or higher toxicity suspected to be drug-related, at which point the accelerated phase will stop, and that particular cohort will be expanded to a total of 6 subjects. Subsequently, a standard escalation schedule, with approximately 50% dose increments and 6-subject cohorts, will be initiated in order to establish the non-tolerated dose (NTD) and MTD. Smaller increments and additional subjects within a dose cohort may also be evaluated. A dose will be considered the NTD when 2 evaluable subjects in a cohort experience drug-related DLT. When the NTD is established, dose escalation will stop. The MTD is defined as the last dose level below the NTD with 0 or 1 out of 6 evaluable subjects experiencing DLT during Cycle 1. An intermediate dose (ie, one between the NTD and the last dose level before the NTD) or additional subjects within any dose cohort may be required to more precisely determine the MTD.
In Part B, subjects may start Compound 1 at the MTD and/or a lower dose level based on safety, PK and PD data from Part A. Approximately 200 subjects will be treated and evaluated for safety and preliminary antitumor activity after every two cycles of therapy. Selected tumor types include non-small cell lung cancer (NSCLC), glioblastoma multiforme (GBM), hepatocellular carcinoma (HCC), gastrointestinal neuroendocrine tumor (NET) of non-pancreatic origin, hormone receptor positive breast cancer (HRPBC), diffuse large B-cell lymphoma (DLBCL), and multiple myeloma (MM). Up to 40 evaluable subjects will be enrolled for each tumor type.
Men and women, 18 years or older, with advanced NHL, MM, or advanced unresectable solid tumors, including subjects who have progressed on (or not been able to tolerate) standard therapy or for whom no standard anticancer therapy exists.
During the first cycle only in Part A, each subject will be administered a single dose of Compound 1 (Day −1), followed by a 48-hour observation and PK sampling period, followed on Day 1 by daily uninterrupted dosing for 28 days (Cycle 1=30 days). In subsequent Part A cycles, subjects are treated in 28-day cycles with continuous dosing from Day 1 to 28. […]

[3] = test system: hematological cancer cell lines; assay: Growth inhibitory effect of Compound 1 (Cell Titer-Glo, 72 hours, GI50) correlated with biomarkers; assay type: cell-based
Procedure: Cell Lines and Culture Conditions.
40 hematological cancer cell lines (Table 5) used in the study were purchased commercially. A lung cancer cell line A549 was used as a control cell line. A549 was purchased from National Cancer Institute (NCI) and cultured in RPMI+10% fetal bovine serum (FBS).
Cell pellets were made for 37 cell lines without any compound treatment and a reverse phase protein array (RPPA) was performed as described in Tibes R, et al. Mol Cancer Ther 2006; 5:2512-2521. The RPPA analysis of the 37 hematological cell lines was performed with 262 antibodies. The relative level of each protein in each sample was determined and normalized for protein loading. Protein levels were then transformed to log 2 values and median centered by individual batch.
Cells were lysed in RNeasy kit tissue lysis (RLT) buffer (Qiagen; Valencia, Calif.) and total RNA was isolated using RNeasy. Double-stranded cDNA and biotin-labeled cRNA were synthesized using 100 ng of total RNA using Ambion's MessageAmp Premier RNA Amplification Kit. […]
The seeding density for each cell line was optimized to ensure assay linearity in 384-well plates. […] When ready for testing, plates were removed from the freezer, thawed, and unsealed just prior to the addition of the test cells.
Prior to testing, cells were grown and expanded in culture flasks to provide sufficient amounts of starting material. […] At the time when exposure of cells to compound began (t0), initial cell number was assessed via a viability assay (Cell Titer-Glo) by quantifying the level of luminescence generated by adenosine-5′-triphosphate (ATP) present in viable cells. After 72 hours, cell viability of compound-treated cells was assessed via Cell Titer-Glo and read for luminescence.
Cell lines were assayed for growth inhibition by Compound 1 in at least 3 independent tests. […] The response of the control cell line to the compound was monitored closely to enable comparison of the data generated through the assay period. […] In addition, the IC50 value of Compound 1 for each cell line was calculated.

[4] = test system: A549; assay: Repeat testing of pre-spotted Compound 1 plates against the control cell line (A549); assay type: cell-based; details: sealed 384-well plates stored at −20° C. for up to 1 month
Procedure: The seeding density for each cell line was optimized to ensure assay linearity in 384-well plates. Increasing concentrations of Compound 1 (0.5 nM to 10 μM) were spotted in a 10-point serial dilution fashion (3-fold dilution) in duplicate within the plate via an acoustic dispenser (EDCATS-100) into an empty 384-well plate. The dimethyl sulfoxide (DMSO) concentration was kept constant for a final assay concentration of 0.1% DMSO. Plates were replicated for use against different cell lines and testing periods. After compound plate replication, all plates were sealed (Agilent ThermoLoc) and stored at −20° C. for up to 1 month. […] When ready for testing, plates were removed from the freezer, thawed, and unsealed just prior to the addition of the test cells.

stability in pre-spotted plates [4]: stable
SMILES: CO[C@H]1CC[C@H](N2C(=O)CNc3ncc(-c4ccc(C(C)(C)O)nc4)nc32)CC1 [Compound 1, 7-(6-(2-hydroxypropan-2-yl)pyridin-3-yl)-1-((trans)-4-methoxycyclohexyl)-3,4-dihydropyrazino[2,3-b]pyrazin-2(1H)-one]
RECIST* (best target lesion response) ([1]; ER+ patients, genes with mutations of interest): SD (8×) and PD (3×) and PR (2×)
showing RECIST PR ([1]; patients treated with Compound 1, FIG. 1, data as of September 2014): 2/17
target lesions showing PR ([1]; patients treated with Compound 1, FIG. 1, data as of September 2014, all with PIK3CA mutations): 3/17
Best overall response ([2]; patients with HCC exp. (expansion)): SD (2×) and NE
Best overall response ([2]; patients with MM): PD (8×) and NE and SD (4×)
Best overall response ([2]; patients with NET exp. (expansion)): SD (17×) and PD (2×) and NE and PR
Best overall response ([2]; patients with NET): SD (18×) and NE (4×) and PR
Best overall response ([2]; patients with NSCL+): PR and PD
Best overall response ([2]; patients with NSCLC): NE (6×) and SD (11×) and PD (2×)
IRF4 protein levels versus sensitivity to growth inhibition ([3]; 37 hematological cancer cell lines, RPPA, FIG. 5): negatively correlated
IRF4 gene expression level (Probe Set 216986_s_at) versus sensitivity to growth inhibition ([3]; 40 hematological cancer cell lines, FIG. 4): negatively correlated
sensitivity versus activation of mTORC1 and mTORC2 (biomarker RPPA) ([3]; subgroup of DLBCL lines, FIG. 6): correlated
